{"source": "patent US10231980B2", "about": "“Cortexolone 17alpha-benzoate for use in the treatment of tumours” (COSMO TECHNOLOGIES LTD., priority 2014, dated 2019)", "key": {"MiaPaca2 (AR low)": {"test_system": "MiaPaca2 (AR low)", "experiment": "ATP-dependent proliferation assay with 10 nM DHT, pancreatic cancer cells (Examples 3, 4, 7)", "conditions": "for TI on Resting PBMC: IC50 resting PBMC / IC50 MiaPaca2; for TI on Stimulated PBMC: IC50 stimulated PBMC / IC50 MiaPaca2", "protocol": "(§1) The experimental method consisted of: • 1. […] After 24 hrs, 10 nM DHT (dihydrotestosterone) with or without anti-androgen compounds, or DMSO vehicle (negative control) was added to the cultures. • 3.\n(§2) Data from Experiment 1 were fitted through sigmoidal dose response curves and analyzed using Prizm statistical analysis software. […] The results from 2 sets of experiments follow.\n(§3) Data from Experiment 1 was fitted through sigmoidal dose response curves and analyzed using Prizm statistical analysis software."}, "Panc1 (AR+)": {"test_system": "Panc1 (AR+)", "experiment": "ATP-dependent proliferation assay with 10 nM DHT, pancreatic cancer cells (Examples 3, 4, 7)", "conditions": "for TI on Resting PBMC: IC50 resting PBMC / IC50 Panc1; for TI on Stimulated PBMC: IC50 stimulated PBMC / IC50 Panc1", "protocol": "as §1, §2, §3"}, "LNCaP": {"test_system": "LNCaP", "experiment": "ATP-dependent cell viability assay (Cell Titer Glo), Example 12", "conditions": "LNCaP; for pIC50: Homo sapiens", "source_text": "(§4) Data shown in Table I were fitted through sigmoidal dose response curves and analyzed using Prizm statistical."}, "MiaPaca2": {"test_system": "MiaPaca2", "experiment": "ATP-dependent cell viability assay (Cell Titer Glo), Example 12", "conditions": "MiaPaca2", "source_text": "as §4"}, "PC3": {"test_system": "PC3", "experiment": "ATP-dependent cell viability assay (Cell Titer Glo), Example 12", "conditions": "for pIC50: Homo sapiens", "source_text": "as §4"}, "Panc1": {"test_system": "Panc1", "experiment": "ATP-dependent cell viability assay (Cell Titer Glo), Example 12", "conditions": "Panc1", "source_text": "as §4"}, "MCF7": {"test_system": "MCF7", "experiment": "In vitro proliferation / cytotoxic assay on breast cancer cells (Examples 14, 25)", "protocol": "as §4\n(§5) For the cytotoxic assay, cells were seeded in 96-well flat bottom culture plates in media containing charcoal stripped serum. After 24 hours, test compounds were added to the cells. DMSO was used as the vehicle negative control and RU486 as the positive control. After 72 hour incubation, cells were harvested and lysed to determine cell viability using the Cell Titer Glow assay."}, "[1]": {"test_system": "MiaPaca-2 pancreatic tumor xenograft", "experiment": "Human pancreatic tumor xenograft in nude mice", "assay_type": "in vivo", "protocol": "Cortexolone 17α-benzoate and Cyproterone Acetate were separately diluted in DMSO/2-hydroxypropyl β-cyclodextrin (vehicle).\nThe test was carried out comparing the anti-tumor activity of cortexolone 17α-benzoate at two different dosages (8.0 mg/kg, corresponding approximately at 230 μM, and 40 mg/kg, corresponding approximately at 1150 μM), versus the vehicle (i.e. 0.4% (v/v) tween 80 and 0.5% (w/v) carboxymethylcellulose in normal saline) and versus the comparator Cyproterone Acetate at two different dosages (7.4 mg/kg and 37 mg/kg).\n1×10^6 MiaPaca-2 cells suspended in matrigel were sub-cutaneously injected into 6 week old athymic nude mice.\nThe treatment with the tested compounds, with the vehicle and with the comparative compound, was initiated after the tumor volume has reached 50 mm^3 after transplantation. All compounds were injected 100 μL/mouse of low dose solution (approximately 230 μM) or 100 μL/mouse of high dose solution (approximately 1150 μM) of cortexolone 17α-benzoate, vehicle and Cyproterone Acetate, respectively. Compounds and controls were administered subcutaneously daily for 28 days.\nTumors were measured every 4 days with a digital caliper.\nThe results are plotted in FIG. 1 as average change in tumor volume relative to the start of treatment. Tumor volume was calculated according to the formula 0.5236(r1)^2(r2) where r1<r2.\nError bars are the SEM for 7 to 10 mice per treatment group. P values were calculated according to the Student's t test.\nCortexolone 17α-valerate-21-propionate and Cyproterone Acetate were separately diluted in DMSO/2-hydroxypropyl β-cyclodextrin (vehicle).\nThe test was carried out comparing the anti-tumor activity of cortexolone 17α-valerate-21-propionate at two different dosages (approximately 8.6 mg/kg and 43 mg/kg) versus the vehicle (i.e. 0.4% (v/v) tween 80 and 0.5% (w/v) carboxymethylcellulose in normal saline) and versus the comparator Cyproterone Acetate at two different dosages (7.4 mg/kg and 37 mg/kg).\n1×10^6 MiaPaca-2 cells suspended in matrigel were subcutaneously injected into 6 week old athymic nude mice.\nThe treatment with the tested compound, with the vehicle and with the comparative compound was initiated after the tumor has reached a volume of 50 mm^3 after implantation, injecting subcutaneously 100 μL/mouse of low dose solution (approximately 230 μM) or 100 μL/mouse of high dose solution (approximately 1150 μM) of cortexolone 17α-valerate-21-propionate, vehicle and Cyproterone Acetate, respectively. Compounds and controls were administered subcutaneously daily for 28 days. Tumors were measured every 4 days with a digital caliper.\nThe results are plotted in FIG. 2 as average change in tumor volume relative to the start of treatment. Tumor volume was calculated according to the formula 0.5236(r1)^2(r2) where r1<r2.\nCyproterone acetate (CPA), a well-known anti-androgen, was used as control. Briefly 1×10^6 MiaPaca2 cells suspended in matrigel were subcutaneously (sc) injected into 6 week old male athymic nude mice. Tumors were measured every 4 days with a digital caliper. Tumor volume was calculated according to the formula: 0.5236(r1)2(r2) where r1<r2. Treatment with CB-03-06 and control compounds were initiated after the tumor had reached 50 mm^3. Compounds diluted in DMSO/2-hydroxypropyl b-cyclodextrin (vehicle) were subcutaneously injected daily (100 microL/mouse) at the concentration of 40 mg/Kg daily for 28 consecutive days."}, "7 cancer cell lines": {"test_system": "7 cancer cell lines", "experiment": "Therapeutic index over a panel of cancer cell lines", "assay_type": "cell-based", "conditions": "average over the cancer cell lines of Table VII", "protocol": "The compound toxicity was determined as follow:\nTherapeutic Index=Safety/Potency=IC50 stimulated PBMC/IC50 cancer cell"}, "stimulated PBMC": {"test_system": "stimulated PBMC", "experiment": "IC50 on stimulated (actively dividing) PBMC", "assay_type": "cell-based, human", "conditions": "PBMC Stim; Table IV"}, "MDA-MB-231": {"test_system": "MDA-MB-231", "experiment": "In vitro proliferation / cytotoxic assay on breast cancer cells (Examples 14, 25)", "assay_type": "cell-based", "conditions": "Homo sapiens; MDA-MB-231; at 100 μM; read-out: maximum inhibition of viability", "protocol": "as §4, §5"}, "[2]": {"conditions": "Experiment 1, 0 = higher toxicity in PBMC"}}, "note": "pIC50: −log10 of the molar value. Where two headings read alike, the source gives them in different places."}
{"smiles": "CC(=O)O[C@]1(C(C)=O)CC[C@H]2[C@@H]3C=C(Cl)C4=CC(=O)[C@@H]5C[C@@H]5[C@]4(C)[C@H]3CC[C@@]21C", "note": "[Cyproterone Acetate, reference compound]", "values": [{"measurement": "TI on Resting PBMC", "setting": "MiaPaca2 (AR low); [2]", "value": 0}, {"measurement": "TI on Resting PBMC", "setting": "MiaPaca2 (AR low); Experiment 2", "value": 1}, {"measurement": "TI on Stimulated PBMC", "setting": "MiaPaca2 (AR low); [2]", "value": 2}, {"measurement": "TI on Stimulated PBMC", "setting": "MiaPaca2 (AR low); Experiment 2", "value": 2}, {"measurement": "TI on Resting PBMC", "setting": "Panc1 (AR+); [2]", "value": 0}, {"measurement": "TI on Resting PBMC", "setting": "Panc1 (AR+); Experiment 2", "value": 4}, {"measurement": "TI on Stimulated PBMC", "setting": "Panc1 (AR+); [2]", "value": 1}, {"measurement": "TI on Stimulated PBMC", "setting": "Panc1 (AR+); Experiment 2", "value": 1}, {"measurement": "pIC50", "setting": "LNCaP; 72 h", "value": 4.66}, {"measurement": "pIC50", "setting": "LNCaP; read-out: In vitro proliferation IC50", "value": 4.66}, {"measurement": "Therapeutic Index = IC50 resting PBMC/IC50 cancer cell", "setting": "LNCaP; Table IV", "value": 3}, {"measurement": "Therapeutic Index = IC50 stimulated PBMC/IC50 cancer cell", "setting": "LNCaP; Table VII", "value": 3}, {"measurement": "Therapeutic Index = IC50 resting PBMC/IC50 cancer cell", "setting": "MiaPaca2; Table IV", "value": 2}, {"measurement": "Therapeutic Index = IC50 stimulated PBMC/IC50 cancer cell", "setting": "MiaPaca2; Table VII", "value": 2}, {"measurement": "pIC50", "setting": "PC3; PC-3, 72 h, PC3, Tables I and II, titrated 3 uM to 200 uM, 3 days", "value": 4.05}, {"measurement": "pIC50", "setting": "PC3; PC-3, read-out: In vitro proliferation IC50, PC3, Table IV", "value": 4.05}, {"measurement": "Therapeutic Index = IC50 resting PBMC/IC50 cancer cell", "setting": "PC3; PC3, Table IV", "value": 1}, {"measurement": "Therapeutic Index = IC50 stimulated PBMC/IC50 cancer cell", "setting": "PC3; PC3, Table VII", "value": 1}, {"measurement": "Therapeutic Index = IC50 resting PBMC/IC50 cancer cell", "setting": "Panc1; Table IV", "value": 1}, {"measurement": "Therapeutic Index = IC50 stimulated PBMC/IC50 cancer cell", "setting": "Panc1; Table VII", "value": 1}, {"measurement": "Therapeutic Index = IC50 resting PBMC/IC50 cancer cell", "setting": "MCF7; MCF7, Table IV", "value": 1}, {"measurement": "Therapeutic Index = IC50 stimulated PBMC/IC50 cancer cell", "setting": "MCF7; MCF7, Table VII", "value": 1}, {"measurement": "pancreatic tumor size relative to the size when treatment was initiated", "setting": "[1]; Example 5, MiaPaca-2 xenograft, nude mice, SC daily 28 days, high dose of cortexolone 17α-benzoate (40 mg/kg)", "value": 12, "unit": "fold"}, {"measurement": "pancreatic tumor size relative to the initial tumor size", "setting": "[1]; Example 6, MiaPaca-2 xenograft, nude mice, SC daily 28 days, for the time of treatment", "value": "≥ 12", "unit": "fold"}, {"measurement": "pancreatic tumor size relative to the initial size", "setting": "[1]; Example 22, MiaPaca2 xenograft, male nude mice, 40 mg/Kg SC daily 28 days, treatment period", "value": 12, "unit": "fold"}, {"measurement": "Median survival", "setting": "[1]; Example 22, MiaPaca2 xenograft, 40 mg/Kg SC daily 28 days", "value": 40, "unit": "days"}, {"measurement": "Therapeutic Index = IC50 stimulated PBMC/IC50 cancer cell, AVERAGE", "setting": "7 cancer cell lines", "value": 1}, {"measurement": "Therapeutic Index = IC50 resting PBMC/IC50 cancer cell", "setting": "stimulated PBMC", "value": 1}]}
{"smiles": "CC#C[C@]1(O)CC[C@H]2[C@@H]3CCC4=CC(=O)CCC4=C3[C@@H](c3ccc(N(C)C)cc3)C[C@@]21C", "note": "[RU486, Mifepristone, reference compound]", "values": [{"measurement": "effect on viability, in words", "setting": "MCF7; MCF7", "value": "does not affect"}, {"measurement": "IC50", "setting": "MCF7; MCF7 (ER+PR+GR+/−), 72 hour, Table VI", "value": "Not active"}, {"measurement": "cytotoxicity at 100 µM", "setting": "MDA-MB-231", "value": 25, "unit": "%"}]}
